Columns and labels:
Human Melanocortin (MC3) = target: T1, Human Melanocortin (MC3) (Homo sapiens, UniProt P41968); experiment: Radioligand binding, human melanocortin MC3 membranes, FlashPlate, [125I]-NDP-αMSH; conditions: compound at 10 μM; [125I]-NDP-αMSH, FlashPlate
T1 construct: purchased Perkin Elmer Biosignal
In short: (§1)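 Cloned human receptor membranes were coated onto FlashPlate wells and incubated with radioligand and compound (added from a 0.5 mM DMSO daughter plate) for 1 hour at room temperature in the dark. Scintillation counting gave percent inhibition, with DMSO defining total and reference ligand defining non-specific binding.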

[1] = target: T2, Human melanin-concentrating hormone (MCH1) (Homo sapiens, UniProt Q99705); experiment: Radioligand binding, human melanin-concentrating hormone MCH1 membranes, FlashPlate, [125I]-S36057; conditions: compound at 10 μM; [125I]-S36057, FlashPlate
T2 construct: purchased Perkin Elmer Biosignal
T2 sequence (Q99705 whole entry): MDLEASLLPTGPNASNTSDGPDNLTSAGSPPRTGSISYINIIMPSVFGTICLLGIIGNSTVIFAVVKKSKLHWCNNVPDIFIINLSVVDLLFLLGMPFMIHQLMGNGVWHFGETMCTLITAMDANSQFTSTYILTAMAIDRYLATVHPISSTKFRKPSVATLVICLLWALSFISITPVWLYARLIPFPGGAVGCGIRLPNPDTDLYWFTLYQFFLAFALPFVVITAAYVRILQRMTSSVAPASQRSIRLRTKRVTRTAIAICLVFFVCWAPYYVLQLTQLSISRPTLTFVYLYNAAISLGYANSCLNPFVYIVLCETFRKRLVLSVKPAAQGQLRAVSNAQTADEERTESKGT
In short: as §1

Human neurokinin (NK1) = target: T3, Human neurokinin (NK1) (Homo sapiens, UniProt P25103); experiment: Radioligand binding, human neurokinin NK1 membranes, filtration, [125I]-Substance P; conditions: compound at 10 μM; [125I]-Substance P, filtration
T3 construct: purchased Perkin Elmer Biosignal
T3 sequence (P25103 whole entry): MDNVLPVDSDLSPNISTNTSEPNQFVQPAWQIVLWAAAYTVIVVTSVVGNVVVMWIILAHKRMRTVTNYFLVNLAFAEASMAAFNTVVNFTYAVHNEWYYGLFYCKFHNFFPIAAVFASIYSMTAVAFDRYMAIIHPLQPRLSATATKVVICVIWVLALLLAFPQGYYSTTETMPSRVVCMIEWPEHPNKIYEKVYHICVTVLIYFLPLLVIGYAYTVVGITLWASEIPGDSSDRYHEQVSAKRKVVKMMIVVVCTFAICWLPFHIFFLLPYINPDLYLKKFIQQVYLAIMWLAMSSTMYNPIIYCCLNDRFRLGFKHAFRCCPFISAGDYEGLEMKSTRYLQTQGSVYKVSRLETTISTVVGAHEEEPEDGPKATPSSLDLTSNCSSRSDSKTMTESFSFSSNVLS
In short: (§2)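 Filtration binding on cloned human receptor membranes (1 Unit/well), [125I]-Substance P for NK1 and [3H]-Diprenorphine for KOP, 1 h at room temperature. Filters PEI-presoaked, washed with cold 50 mM Tris-HCl pH 7.4, counted by scintillation; percent inhibition calculated, reference ligand defining non-specific binding.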

Human κ-Opioid (KOP) = target: T4, Human κ-Opioid (KOP) (Homo sapiens, UniProt P41145); experiment: Radioligand binding, human κ-opioid (KOP) membranes, filtration, [3H]-Diprenorphine; conditions: compound at 10 μM; [3H]-Diprenorphine, filtration
T4 construct: purchased Perkin Elmer Biosignal
T4 sequence (P41145 whole entry): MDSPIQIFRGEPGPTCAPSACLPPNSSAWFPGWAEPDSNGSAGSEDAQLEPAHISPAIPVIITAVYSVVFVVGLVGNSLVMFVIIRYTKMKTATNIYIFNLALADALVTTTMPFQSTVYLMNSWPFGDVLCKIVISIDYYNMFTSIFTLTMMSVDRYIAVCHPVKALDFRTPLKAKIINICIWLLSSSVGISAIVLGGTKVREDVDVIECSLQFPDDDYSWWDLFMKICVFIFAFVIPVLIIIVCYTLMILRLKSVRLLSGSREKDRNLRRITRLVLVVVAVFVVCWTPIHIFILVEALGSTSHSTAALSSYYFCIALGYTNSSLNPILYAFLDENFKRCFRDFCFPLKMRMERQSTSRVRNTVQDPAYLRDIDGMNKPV
In short: as §2

Human melanocortin (MC5) = target: T5, Human melanocortin (MC5) (Homo sapiens, UniProt P33032); experiment: Radioligand binding, human melanocortin MC5 membranes, FlashPlate, [125I]-NDP-αMSH; conditions: compound at 10 μM; [125I]-NDP-αMSH, FlashPlate
T5 construct: purchased Perkin Elmer Biosignal
T5 sequence (P33032 whole entry): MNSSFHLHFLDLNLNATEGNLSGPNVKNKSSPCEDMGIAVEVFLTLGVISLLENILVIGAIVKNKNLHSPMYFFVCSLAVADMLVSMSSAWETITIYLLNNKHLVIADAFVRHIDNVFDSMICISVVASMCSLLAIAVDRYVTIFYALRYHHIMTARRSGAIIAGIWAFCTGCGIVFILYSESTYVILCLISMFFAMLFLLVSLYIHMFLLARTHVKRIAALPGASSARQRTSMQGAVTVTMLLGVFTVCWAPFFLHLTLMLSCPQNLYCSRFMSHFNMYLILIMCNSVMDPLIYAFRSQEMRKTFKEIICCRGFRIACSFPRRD
In short: as §1

Human δ-opioid (DOP) = target: T6, Human δ-opioid (DOP) (Homo sapiens, UniProt P41143); experiment: Radioligand binding, human δ-opioid (DOP) membranes, FlashPlate, [3H]-Bremazocine; conditions: compound at 10 μM; [3H]-Bremazocine, FlashPlate
T6 construct: purchased Perkin Elmer Biosignal
T6 sequence (P41143 whole entry): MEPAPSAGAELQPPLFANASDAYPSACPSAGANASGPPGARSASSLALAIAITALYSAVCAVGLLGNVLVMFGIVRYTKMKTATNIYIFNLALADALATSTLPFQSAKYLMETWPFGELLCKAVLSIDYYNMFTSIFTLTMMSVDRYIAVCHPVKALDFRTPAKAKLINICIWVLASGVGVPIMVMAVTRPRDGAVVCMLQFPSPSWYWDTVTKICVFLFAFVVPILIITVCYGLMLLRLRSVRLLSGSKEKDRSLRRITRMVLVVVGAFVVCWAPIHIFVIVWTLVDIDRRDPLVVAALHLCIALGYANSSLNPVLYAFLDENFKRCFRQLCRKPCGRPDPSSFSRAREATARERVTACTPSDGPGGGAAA
In short: as §1

Human opioid (ORL1) = target: T7, Human opioid (ORL1) (Homo sapiens, UniProt P41146); experiment: Radioligand binding, human opioid ORL1 membranes, FlashPlate, [125I]-Nociceptin; conditions: compound at 10 μM; [125I]-Nociceptin, FlashPlate
T7 construct: purchased Perkin Elmer Biosignal
T7 sequence (P41146 whole entry): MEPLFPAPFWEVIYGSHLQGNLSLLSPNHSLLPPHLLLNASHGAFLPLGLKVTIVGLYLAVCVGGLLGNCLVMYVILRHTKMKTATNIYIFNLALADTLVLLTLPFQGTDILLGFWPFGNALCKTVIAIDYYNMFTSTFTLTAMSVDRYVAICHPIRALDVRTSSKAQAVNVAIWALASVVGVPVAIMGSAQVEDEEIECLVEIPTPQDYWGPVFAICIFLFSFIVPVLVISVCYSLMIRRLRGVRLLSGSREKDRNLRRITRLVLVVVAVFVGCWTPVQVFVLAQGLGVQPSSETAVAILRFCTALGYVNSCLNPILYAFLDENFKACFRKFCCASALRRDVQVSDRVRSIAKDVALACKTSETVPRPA
In short: as §1

Human Melanocortin (MC4) = target: T8, Human Melanocortin (MC4) (Homo sapiens, UniProt P32245); experiment: Radioligand binding, human melanocortin MC4 membranes, FlashPlate, [125I]-NDP-αMSH; conditions: compound at 10 μM; [125I]-NDP-αMSH, FlashPlate
T8 construct: purchased Perkin Elmer Biosignal
T8 sequence (P32245 whole entry): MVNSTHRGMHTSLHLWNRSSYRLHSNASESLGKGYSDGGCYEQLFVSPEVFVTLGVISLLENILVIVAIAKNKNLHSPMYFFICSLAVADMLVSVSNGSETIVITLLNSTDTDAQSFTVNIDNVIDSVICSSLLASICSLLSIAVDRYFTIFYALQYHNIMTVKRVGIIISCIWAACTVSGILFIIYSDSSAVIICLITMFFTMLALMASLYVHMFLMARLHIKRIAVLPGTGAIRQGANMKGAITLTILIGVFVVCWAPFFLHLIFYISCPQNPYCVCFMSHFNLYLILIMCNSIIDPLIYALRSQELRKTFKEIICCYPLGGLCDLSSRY
In short: as §1

Human μ-opioid (MOP) = target: T9, Human μ-opioid (MOP) (Homo sapiens, UniProt P35372); experiment: Radioligand binding, human μ-opioid (MOP) membranes, FlashPlate, [3H]-Naloxone; conditions: compound at 10 μM; [3H]-Naloxone, FlashPlate
T9 construct: purchased Perkin Elmer Biosignal
T9 sequence (P35372 whole entry): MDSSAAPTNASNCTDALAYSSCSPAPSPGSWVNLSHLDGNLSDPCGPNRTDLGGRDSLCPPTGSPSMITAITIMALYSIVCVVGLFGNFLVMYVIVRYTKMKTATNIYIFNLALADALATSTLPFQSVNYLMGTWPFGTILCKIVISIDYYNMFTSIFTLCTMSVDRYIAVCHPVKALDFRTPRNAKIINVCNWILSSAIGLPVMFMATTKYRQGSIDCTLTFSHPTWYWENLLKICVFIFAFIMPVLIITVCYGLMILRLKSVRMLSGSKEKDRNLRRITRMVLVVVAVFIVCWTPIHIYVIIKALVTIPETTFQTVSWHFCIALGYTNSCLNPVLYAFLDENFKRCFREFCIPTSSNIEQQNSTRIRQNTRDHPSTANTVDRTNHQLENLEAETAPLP
In short: as §1

[2] = target: T10, Human neuropeptide Y (NPY-Y1) (Homo sapiens, UniProt P25929); experiment: Radioligand binding, human neuropeptide Y NPY-Y1 membranes, FlashPlate, [125I]-PYY; conditions: compound at 10 μM; [125I]-PYY, FlashPlate
T10 construct: purchased Perkin Elmer Biosignal
T10 sequence (P25929 1-384): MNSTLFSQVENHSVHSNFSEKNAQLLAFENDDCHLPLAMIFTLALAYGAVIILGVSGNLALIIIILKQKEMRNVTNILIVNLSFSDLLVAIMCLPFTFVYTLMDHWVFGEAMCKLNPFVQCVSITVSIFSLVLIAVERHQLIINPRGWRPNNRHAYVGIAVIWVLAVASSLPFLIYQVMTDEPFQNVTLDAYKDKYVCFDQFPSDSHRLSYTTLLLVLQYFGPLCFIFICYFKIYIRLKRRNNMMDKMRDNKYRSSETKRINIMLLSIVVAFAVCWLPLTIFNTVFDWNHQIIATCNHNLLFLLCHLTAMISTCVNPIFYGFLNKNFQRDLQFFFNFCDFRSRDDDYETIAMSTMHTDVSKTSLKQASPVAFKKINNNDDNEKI
In short: as §1

Mouse urotensin (mUR2) = target: T11, Mouse urotensin (mUR2) (Mus musculus, UniProt Q8VIH9); experiment: Radioligand binding, mouse urotensin mUR2 membranes, FlashPlate, [125I]-Urotensin II; conditions: compound at 10 μM; [125I]-Urotensin II, FlashPlate
T11 construct: purchased Perkin Elmer Biosignal
T11 sequence (Q8VIH9 1-385): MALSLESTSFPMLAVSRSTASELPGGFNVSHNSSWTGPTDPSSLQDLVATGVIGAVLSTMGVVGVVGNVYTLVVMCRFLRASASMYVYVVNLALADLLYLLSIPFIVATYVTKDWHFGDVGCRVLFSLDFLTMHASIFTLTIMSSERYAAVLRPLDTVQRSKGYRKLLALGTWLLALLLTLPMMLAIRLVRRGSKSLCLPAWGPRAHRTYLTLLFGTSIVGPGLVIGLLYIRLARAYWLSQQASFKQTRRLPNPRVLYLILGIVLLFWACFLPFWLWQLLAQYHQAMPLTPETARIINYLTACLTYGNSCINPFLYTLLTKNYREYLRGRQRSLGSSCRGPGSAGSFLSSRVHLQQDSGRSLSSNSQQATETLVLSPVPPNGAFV
In short: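 Cloned mouse urotensin (mUR2) receptor membranes from Perkin Elmer Biosignal were immobilized in FlashPlate microplates using a proprietary coating. Each well got 19.5 μl buffer, then 0.5 μl of DMSO, reference ligand, or compound. Adding 5 μl of [125I]-Urotensin II, diluted to 5× final concentration in binding buffer, started binding. Plates were sealed with TopSeal-A and incubated 1 hour at room temperature in the dark. Wells were counted for 30 seconds each on a TopCount after a 60-second delay, and percentage inhibition was calculated.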

T1 sequence (P41968 whole entry): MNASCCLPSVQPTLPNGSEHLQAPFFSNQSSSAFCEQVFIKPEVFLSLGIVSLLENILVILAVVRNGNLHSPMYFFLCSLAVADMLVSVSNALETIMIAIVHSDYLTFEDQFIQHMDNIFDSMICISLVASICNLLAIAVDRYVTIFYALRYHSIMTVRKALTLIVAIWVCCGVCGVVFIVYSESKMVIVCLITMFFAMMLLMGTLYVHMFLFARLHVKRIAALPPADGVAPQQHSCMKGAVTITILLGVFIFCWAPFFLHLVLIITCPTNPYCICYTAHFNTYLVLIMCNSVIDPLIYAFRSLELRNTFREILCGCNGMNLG

SMILES	A3: inhibition of radioligand binding (Human Melanocortin (MC3))	A6: inhibition of radioligand binding [1]	A8: inhibition of radioligand binding (Human neurokinin (NK1))	A2: inhibition of radioligand binding (Human κ-Opioid (KOP))	A5: inhibition of radioligand binding (Human melanocortin (MC5))	A1: inhibition of radioligand binding (Human δ-opioid (DOP))	A10: inhibition of radioligand binding (Human opioid (ORL1))	A4: inhibition of radioligand binding (Human Melanocortin (MC4))	A7: inhibition of radioligand binding (Human μ-opioid (MOP))	A9: inhibition of radioligand binding [2]	A11: inhibition of radioligand binding (Mouse urotensin (mUR2))
CSC1OC(COCc2ccccc2)C(O)C(OCc2ccc(Cl)cc2)C1NC(=O)CCCNC(=N)N (stereo not drawn) [compound 268]	− (“−” indicates less than 50% inhibition at 10 μM)	− (“−” indicates less than 50% inhibition at 10 μM)	+ (“+” indicates greater than 50% inhibition at 10 μM)	− (“−” indicates less than 50% inhibition at 10 μM)	+ (“+” indicates greater than 50% inhibition at 10 μM)	− (“−” indicates less than 50% inhibition at 10 μM)	− (“−” indicates less than 50% inhibition at 10 μM)	− (“−” indicates less than 50% inhibition at 10 μM)	− (“−” indicates less than 50% inhibition at 10 μM)	− (“−” indicates less than 50% inhibition at 10 μM)	− (“−” indicates less than 50% inhibition at 10 μM)
CSC1OC(COCc2ccc(Cl)cc2)C(O)C(OCc2ccc(Cl)cc2)C1NC(=O)CN (stereo not drawn) [compound 269]	− (“−” indicates less than 50% inhibition at 10 μM)	− (“−” indicates less than 50% inhibition at 10 μM)	+ (“+” indicates greater than 50% inhibition at 10 μM)	− (“−” indicates less than 50% inhibition at 10 μM)	− (“−” indicates less than 50% inhibition at 10 μM)	− (“−” indicates less than 50% inhibition at 10 μM)	− (“−” indicates less than 50% inhibition at 10 μM)	− (“−” indicates less than 50% inhibition at 10 μM)	− (“−” indicates less than 50% inhibition at 10 μM)	− (“−” indicates less than 50% inhibition at 10 μM)	− (“−” indicates less than 50% inhibition at 10 μM)
CSC1OC(COCc2ccc(Cl)cc2)C(O)C(OCc2ccc(Cl)cc2)C1NC(=O)CNC(=N)N (stereo not drawn) [compound 270]	+ (“+” indicates greater than 50% inhibition at 10 μM)	− (“−” indicates less than 50% inhibition at 10 μM)	+ (“+” indicates greater than 50% inhibition at 10 μM)	− (“−” indicates less than 50% inhibition at 10 μM)	+ (“+” indicates greater than 50% inhibition at 10 μM)	− (“−” indicates less than 50% inhibition at 10 μM)	− (“−” indicates less than 50% inhibition at 10 μM)	+ (“+” indicates greater than 50% inhibition at 10 μM)	− (“−” indicates less than 50% inhibition at 10 μM)	− (“−” indicates less than 50% inhibition at 10 μM)	− (“−” indicates less than 50% inhibition at 10 μM)
CSC1OC(COCc2ccc(Cl)cc2)C(O)C(OCc2ccc(Cl)cc2)C1NC(=O)CCN (stereo not drawn) [compound 271]	− (“−” indicates less than 50% inhibition at 10 μM)	− (“−” indicates less than 50% inhibition at 10 μM)	+ (“+” indicates greater than 50% inhibition at 10 μM)	− (“−” indicates less than 50% inhibition at 10 μM)	− (“−” indicates less than 50% inhibition at 10 μM)	− (“−” indicates less than 50% inhibition at 10 μM)	− (“−” indicates less than 50% inhibition at 10 μM)	− (“−” indicates less than 50% inhibition at 10 μM)	− (“−” indicates less than 50% inhibition at 10 μM)	− (“−” indicates less than 50% inhibition at 10 μM)	− (“−” indicates less than 50% inhibition at 10 μM)
CSC1O[C@H](COCc2ccc(Cl)cc2)[C@@H](O)[C@@H](OCc2ccc(Cl)cc2)[C@H]1NC(=O)CCNC(=N)N (stereo partly drawn) [compound 272]	− (“−” indicates less than 50% inhibition at 10 μM)	− (“−” indicates less than 50% inhibition at 10 μM)	+ (“+” indicates greater than 50% inhibition at 10 μM)	− (“−” indicates less than 50% inhibition at 10 μM)	+ (“+” indicates greater than 50% inhibition at 10 μM)	− (“−” indicates less than 50% inhibition at 10 μM)	− (“−” indicates less than 50% inhibition at 10 μM)	+ (“+” indicates greater than 50% inhibition at 10 μM)	− (“−” indicates less than 50% inhibition at 10 μM)	− (“−” indicates less than 50% inhibition at 10 μM)	− (“−” indicates less than 50% inhibition at 10 μM)
CSC1O[C@H](COCc2ccc(Cl)cc2)[C@@H](O)[C@@H](OCc2ccc(Cl)cc2)[C@H]1NC(=O)CCCN (stereo partly drawn) [compound 273]	− (“−” indicates less than 50% inhibition at 10 μM)	− (“−” indicates less than 50% inhibition at 10 μM)	+ (“+” indicates greater than 50% inhibition at 10 μM)	− (“−” indicates less than 50% inhibition at 10 μM)	− (“−” indicates less than 50% inhibition at 10 μM)	− (“−” indicates less than 50% inhibition at 10 μM)	− (“−” indicates less than 50% inhibition at 10 μM)	− (“−” indicates less than 50% inhibition at 10 μM)	− (“−” indicates less than 50% inhibition at 10 μM)	− (“−” indicates less than 50% inhibition at 10 μM)	− (“−” indicates less than 50% inhibition at 10 μM)

From US20080009418A1, “Selective Inhibitors” (Alchemia LTD., priority 2004, published 2008)
